The test system of this experiment is IL-1 alpha biosynthesis in human skin cells (HaCaT keratinocytes). Briefly: Anti-interleukin-1alpha assay: IL-1 alpha biosynthesis in A23187-stimulated HaCaT keratinocytes, ELISA of cell lysate. In kind it is cell-based. The conditions noted are these: vs stimulated control (0.2 μM A23187, 6 h). On the procedure:
Since interleukin-1 alpha (IL-1 alpha) is a central inflammatory mediator in the skin, the inhibiting effect of the blackberry leaf extract on IL-1 alpha biosynthesis in human skin cells (HaCaT keratinocytes) was investigated. The cells are disseminated in a 96-well microtitre plate (MTP) on the previous day. On the day of the experiment, the test substance solutions are applied in medium in three different concentrations as a triple determination and incubated for 60 min at 37° C. and 5% CO2. Cellular IL-1 alpha biosynthesis is then stimulated by the addition of 0.2 μM A23187 calcium ionophore and the solutions are incubated for a further 6 h. The supernatant is drawn off and the cells undergo lysis through the addition of 1% Triton X 100. The IL-1 alpha in the cell lysate is quantified in an ELISA (human IL-1 alpha ELISA kit, EH2IL1A, Endogen).
The results set out below were obtained from two independent experiments. IL-1 alpha inhibition was calculated in comparison to the stimulated control.
A general note: ELISA stands for enzyme-linked immunosorbent assay.

On to `C[C@@H]1C[C@H]2[C@@H]3CCC4=CC(=O)C=C[C@]4(C)[C@@]3(F)[C@@H](O)C[C@]2(C)[C@@]1(O)C(=O)CO` [Dexamethasone], for which testing at 0.01 µM (0.01 μM dexamethasone) gave an inhibition of 28.8%. Besides, testing at 0.1 µM (0.1 μM dexamethasone) gave an inhibition of 37.7%. In addition, 1 µM produced 44.7% inhibition (1 μM dexamethasone).

Source of the values: US8354128B2, “Blackberry leaf extract as an active ingredient against skin irritations and inflammations” (Symrise AG, priority 2005, dated 2013).
